In US20140044656A1, “NOVEL USE” (DSM IP ASSETS B.V., priority 2011, published 2014):

Legend:
[1] = system: Normal human melanocytes NHM (HEMn-MP, Clonetics); experiment: Quantification of melanin synthesis in cell culture; assay type: cell-based; details: for total melanin content versus control (100%): three days, absorbance at 405 nm
Description: Normal human melanocytes NHM (HEMn-MP, Clonetics) were seeded in 96 well cell culture plates and grown to sub-confluence for two days in a mixture of M2-Medium (Clonetics) and Medium (Promocell). Culture medium was exchanged with Culture Medium containing Steviol (96%) and melanogenesis progressed for another three days at 37° C. with another medium exchange on day two. Including cell layer and culture supernatant the total melanin was extracted using 1.7M KOH with vigorous shaking at RT. The total melanin content was determined at 405 nm in an absorbance plate reader versus a control (100%)

[2] = Discoloration experiment (Pantone Color Index of aqueous solution at different pH); assay type: physicochemical; details: for Pantone Index: 1% solution in water
Description: Steviol (87%) was dissolved at 1 wt.-% in water and the pH adjusted to different values as shown below. At pH 9, the solution turns brown within 1 day. However, the more acidic the pH, the less discoloration was observed. The color was determined visually using the Pantone Color Index. Pantone Colours index of 1% Steviol solution in water at different pH: […]

Pantone Index ([2]; pH 6, visual): 155 | Pantone Index ([2]; pH 6.5, visual): 155 | Pantone Index ([2]; pH 7, visual): 158 | Pantone Index ([2]; pH 9, visual): 160 | time until solution turns brown ([2]; 1 wt.-% in water, pH 9): ≤ 1 days
Compound: C=C1C[C@@]23CC[C@H]4[C@@](C)(CCC[C@@]4(C)C(=O)O)[C@@H]2CC[C@]1(O)C3 [Steviol, steviol]
effect on the production of melanin in human melanocytes ([1]; 0.25-1 microM): clear dose dependent positive effect | total melanin content versus control (100%) ([1]; 0.25 microM): 109% | total melanin content versus control (100%) ([1]; 0.5 micro M): 124% | total melanin content versus control (100%) ([1]; 1 micro M): 130% | potency relative to the positive control Glycyrrhizin ([1]; melanin production in human melanocytes): about 1000 times
